Laboratory results as given in patent publication US20250092065A1, “2-(INDAZOL-5-YL)-6-(PIPERIDIN-4-YL)-1,7-NAPHTHYRIDINE DERIVATIVES AND RELATED COMPOUNDS AS MODULATORS FOR SPLICING NUCLEIC ACIDS AND FOR THE TREATMENT OF PROLIFERATIVE DISEASES” (REMIX THERAPEUTICS INC., priority 2022, published 2025).
Where two headings read alike, the source gives them in different places.

Legend:
Assay type in all cases: cell-based, human
HTT mRNA = assay: RT-qPCR splicing assay, HTT mRNA canonical (CJ) and alternative (AJ) junction; details: Homo sapiens; for AC50: HTT alternative junction mRNA, read-out: HTT AJ (increase in AJ mRNA, AC50)
In short: (§1)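 Junction-specific RT-qPCR read-out: CJ and AJ isoform levels, housekeeper-normalized (GAPDH/GUSB/PPIA), ΔΔCt vs DMSO, converted to RQ then % response. Cells: A673 (DMEM/10% FBS, adhered 24 h) or K562 (IMDM/10% FBS). Compound 11-pt 3-fold, top 10 uM, 24 h, 37 °C.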

MYB mRNA = assay: RT-qPCR splicing assay, MYB mRNA canonical (CJ) and alternative (AJ) junction; details: Homo sapiens; for AC50: MYB alternative junction mRNA, read-out: MYB AJ (increase in AJ mRNA, AC50)
In short: as §1

SMN2 mRNA = assay: RT-qPCR splicing assay, SMN2 mRNA; details: Homo sapiens, canonical junction qPCR panel, Table 4; read-out: SMN2 IC50 (decrease in CJ mRNA levels)
In short: as §1

MYB = assay: HiBiT protein abundance assay, MYB (K562 HiBiT knock-in); details: HiBiT knock-in K562 cells, 24 hours, top dose 10 μM
In short: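 Luminescence readout: Nano-Glo HiBiT lytic detection after 24 h compound exposure of K562 HiBiT knock-in cells, 10000 cells/well. Dosing 10-pt, 3-fold, top 10 μM final. % response vs untreated parental K562 and DMSO controls; 4PL fit, IC50 = concentration giving 50% protein abundance.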

[1] = HTT canonical junction mRNA, RT-qPCR, read-out: HTT CJ (decrease in CJ mRNA levels, IC50)
[2] = canonical junction qPCR panel, Table 4, read-out: HTT IC50 (decrease in CJ mRNA levels)
[3] = MYB canonical junction mRNA, RT-qPCR, read-out: MYB CJ (decrease in CJ mRNA levels, IC50)
[4] = canonical junction qPCR panel, Table 4, read-out: MYB IC50 (decrease in CJ mRNA levels)

Row | SMILES | AC50 (HTT mRNA; RT-qPCR) | IC50 (HTT mRNA; [1]) | IC50 (HTT mRNA; [2]) | AC50 (MYB mRNA; RT-qPCR) | IC50 (MYB mRNA; [3]) | IC50 (MYB mRNA; [4]) | IC50 (SMN2 mRNA) | IC50 (MYB)
1 | Cn1cc2cc(-c3ccc4nc([C@@H]5CCNC6(CC6)C5)ccc4n3)c(O)cc2n1 (single isomer, unassigned) [Compound 495] | < 100 nM | < 100 nM | < 100 nM | < 100 nM | < 100 nM | < 100 nM | < 100 nM | < 100 nM
2 | Cn1cc2cc(-c3ccc4nc([C@H]5CCNC6(CC6)C5)ccc4n3)c(O)cc2n1 (single isomer, unassigned) [Compound 496] | < 100 nM | 100 to 1000 nM | 100 to 1000 nM | < 100 nM | 100 to 1000 nM | 100 to 1000 nM | < 100 nM | < 100 nM
3 | Cc1nc2cc(O)c(-c3ccc4nc([C@H]5CCNC6(CC6)C5)ccc4n3)cc2o1 (single isomer, unassigned) [Compound 497] | < 100 nM | < 100 nM | < 100 nM | < 100 nM | < 100 nM | < 100 nM | < 100 nM | < 100 nM
4 | Cc1nc2cc(O)c(-c3ccc4nc([C@@H]5CCNC6(CC6)C5)ccc4n3)cc2o1 (single isomer, unassigned) [Compound 498] | < 100 nM | < 100 nM | < 100 nM | < 100 nM | 100 to 1000 nM | 100 to 1000 nM | < 100 nM | < 100 nM
5 | CN[C@@H]1CCN(c2ccc3nc(-c4cn5cc(C)nc5c(C)c4O)ncc3n2)C1 (single isomer, unassigned) [Compound 504] | 100 to 1000 nM | 100 to 1000 nM | 100 to 1000 nM | 100 to 1000 nM | 100 to 1000 nM | 100 to 1000 nM | < 100 nM | 100 to 1000 nM
6 | CNC(=O)c1nc(-c2cc3cn(C)nc3c(C)c2O)nc2ccc(N3CCN[C@@H](C)C3)cc12 (single isomer, unassigned) [Compound 512] | 100 to 1000 nM | 100 to 1000 nM | 100 to 1000 nM | < 100 nM | < 100 nM | < 100 nM | < 100 nM | < 100 nM
7 | CN[C@@H]1CCN(c2ccc3nc(-c4cc5cn(C)nc5c(C)c4O)ncc3c2)C1 (single isomer, unassigned) [Compound 521] | 100 to 1000 nM | < 100 nM | < 100 nM | < 100 nM | < 100 nM | < 100 nM | < 100 nM | < 100 nM
8 | CNC(=O)c1nc(-c2cc3cn(C)nc3c(C)c2O)nc2ccc(N3C[C@@H](C)N[C@H](C)C3)cc12 (single isomer, unassigned) [Compound 653] | 100 to 1000 nM | < 100 nM | < 100 nM | < 100 nM | < 100 nM | < 100 nM | < 100 nM | < 100 nM
9 | Cc1c(O)c(-c2ncc3cc(N4C[C@@H](C)N[C@H](C)C4)ccc3n2)cc2cn(C)nc12 (single isomer, unassigned) [Compound 661] | 1000 to 10000 nM | 100 to 1000 nM | 100 to 1000 nM | 100 to 1000 nM | 100 to 1000 nM | 100 to 1000 nM | < 100 nM | < 100 nM
10 | CNC(=O)c1nc(-c2cc3cn(C)nc3c(F)c2O)nc2ccc(N3C[C@@H](C)N[C@H](C)C3)cc12 (single isomer, unassigned) [Compound 668] | 1000 to 10000 nM | 100 to 1000 nM | 100 to 1000 nM | < 100 nM | < 100 nM | < 100 nM | < 100 nM | < 100 nM
11 | CNC(=O)c1nc(-c2cc3cn(C)nc3c(F)c2O)nc2ccc(N3C[C@H](C)N[C@@H](C)C3)cc12 (single isomer, unassigned) [Compound 669] | 100 to 1000 nM | 100 to 1000 nM | 100 to 1000 nM | < 100 nM | < 100 nM | < 100 nM | < 100 nM | < 100 nM
12 | CNC(=O)c1nc(-c2cc3cn(C)nc3cc2O)nc2ccc(N3C[C@H](C)N[C@@H](C)C3)cc12 (single isomer, unassigned) [Compound 676] | 100 to 1000 nM | 100 to 1000 nM | 100 to 1000 nM | < 100 nM | < 100 nM | < 100 nM | < 100 nM | < 100 nM
13 | CNC(=O)c1nc(-c2cc3cn(C)nc3cc2O)nc2ccc(N3C[C@@H](C)N[C@H](C)C3)cc12 (single isomer, unassigned) [Compound 677] | 1000 to 10000 nM | 100 to 1000 nM | 100 to 1000 nM | < 100 nM | < 100 nM | < 100 nM | < 100 nM | < 100 nM
14 | Cc1cn2cc(-c3ccc4cc(N5C[C@H](C)N[C@@H](C)C5)cc(F)c4n3)cc(F)c2n1 (single isomer, unassigned) [Compound 705, 2,2,2-trifluoroacetate] | 100 to 1000 nM | 100 to 1000 nM | 100 to 1000 nM | 100 to 1000 nM | < 100 nM | < 100 nM |  | < 100 nM
15 | Cn1cc2cc(-c3ncc4nc(C5CCNCC5)ccc4n3)c(O)c(F)c2n1 [Compound 155] | < 100 nM | < 100 nM | < 100 nM | < 100 nM | < 100 nM | < 100 nM | < 100 nM | < 100 nM
16 | Cc1nc2cc(O)c(-c3ccc4nc(N5CCNC(C(C)(C)C)C5)ccc4n3)cc2o1 (stereo not shown) [Compound 492] | 100 to 1000 nM | 100 to 1000 nM | 100 to 1000 nM | 100 to 1000 nM | 1000 to 10000 nM | 1000 to 10000 nM | < 100 nM | 100 to 1000 nM
17 | Cc1nc2cc(O)c(-c3ccc4nc(N5CC[C@@H](N(C)C(C)(C)C)C5)ccc4n3)cc2o1 [Compound 493] | < 100 nM | < 100 nM | < 100 nM | < 100 nM | < 100 nM | < 100 nM | < 100 nM | < 100 nM
18 | Cc1c(O)c(-c2nc(C(=O)N(C)C)c3cc(N4CCNCC4)ccc3n2)cc2cn(C)nc12 [Compound 502, 2-(6-hydroxy-2,7-dimethylindazol-5-yl)-N,N-dimethyl-6-(piperazin-1-yl)quinazoline-4-carboxamide] | 1000 to 10000 nM | 1000 to 10000 nM | 1000 to 10000 nM | 1000 to 10000 nM | 1000 to 10000 nM | 1000 to 10000 nM | 100 to 1000 nM | 1000 to 10000 nM
19 | CCNC(=O)c1nc(-c2cc3cn(C)nc3c(C)c2O)nc2ccc(N3CCNCC3)cc12 [Compound 503, N-ethyl-2-(6-hydroxy-2,7-dimethylindazol-5-yl)-6-(piperazin-1-yl)quinazoline-4-carboxamide] | < 100 nM | < 100 nM | < 100 nM | < 100 nM | < 100 nM | < 100 nM | < 100 nM | < 100 nM
